From patent publication US20210038559A1, “CANNABINOIDS AND DERIVATIVES FOR PROMOTING IMMUNOGENICITY OF TUMOR AND INFECTED CELLS” (priority 2018, published 2021)
Counter-ions that a name gives are not always drawn.

What follows are molecules tested on MHC-I expression by COLO 205 cells (assay: cells). Details: not given.
Type: cell-based, human
Method: A panel of synthetic cannabinoids (Cayman Chemical, #9002891) was tested for MHC class I-inducing capability in COLO 205 cells as described above. COLO 205 cells were treated with the compounds at a concentration of 35 μM and evaluated for cell surface MHC class I expression after 48 hours. Cells were harvested, stained with MHC-I mAb W6/32 (Thermo Fisher). MHC-I expression was determined by flow cytometry.
In the case of `CCCCCn1cc(Cc2cccc3ccccc23)c2ccccc21` [Example 252, 3-(1-naphthalenylmethyl)-1-pentyl-1H-indole], the “Induction Fold” value is reported as 1.61 Fold.
In the case of `COC(=O)[C@@H](NC(=O)c1nn(CCCC(C)F)c2ccccc12)C(C)C` (some centres unmarked) [Example 268, methyl (1-(4-fluoropentyl)-1H-indazole-3-carbonyl)-1-valinate], the “Induction Fold” value is reported as 1.55 Fold.

Same assay, conditions: Homo sapiens, COLO 205, 48 h, MHC-I expression, COLO 205 cells, compounds at 35 μM, 48 hours, flow cytometry (W6/32); read-out: Induction Fold
`CCCCCn1nc(C(=O)Nc2cccc3cccnc23)c2ccccc21` [Example 232, 1-pentyl-N-(quinolin-8-yl)-1H-indazole-3-carboxamide] showed a fold induction at 35 µM of 1.71.
With `CC(F)CCCCn1cc(C(=O)c2cccc3ccccc23)c2ccccc21` (centres unmarked) [Example 233, (1-(5-fluorohexyl)-1H-indol-3-yl)(naphthalen-1-yl)methanone] the fold induction at 35 µM was 1.71.
`CCCCCn1cc(C(=O)c2cc(OC)cc3ccccc23)c2ccccc21` [Example 234, (3-methoxynaphthalen-1-yl)(1-pentyl-1H-indol-3-yl)methanone] showed a fold induction at 35 µM of 1.71.
`CC(F)CCCn1cc(C(=O)C2C(C)(C)C2(C)C)c2ccccc21` (centres unmarked) [Example 235, (1-(4-fluoropentyl)-1H-indol-3-yl)(2,2,3,3-tetramethylcyclopropyl)methanone] gave a fold induction at 35 µM of 1.7.
Molecule `CCOC(=O)[C@@H](NC(=O)c1nn(CCCCCF)c2ccccc12)C(C)C` [Example 236, ethyl (1-(5-fluoropentyl)-1H-indazole-3-carbonyl)-L-valinate] has a fold induction at 35 µM of 1.7.
With `CC(C)[C@H](NC(=O)c1cn(Cc2ccc(F)cc2)c2ccccc12)C(N)=O` [Example 237, N-[(1S)-1-(aminocarbonyl)-2-methylpropyl]-1-[(4-fluorophenyl)methyl]-1H-indole-3-carboxamide] the fold induction at 35 µM was 1.7.
For `CCCCCn1cc(C(=O)c2cccc3c(Cl)cccc23)c2ccccc21` [Example 238, (5-chloronaphthalen-1-yl)(1-pentyl-1H-indol-3-yl)methanone], the fold induction at 35 µM was 1.7.
With `COC(=O)[C@@H](NC(=O)c1ccc2c(c1)c1ccccc1n2CC1CCCCC1)C(C)(C)C` [Example 239, methyl (S)-2-(9-(cyclohexylmethyl)-9H-carbazole-3-carboxamido)-3,3-dimethylbutanoate] the fold induction at 35 µM was 1.69.
`CCCCCn1cc(C(=O)c2cccc3cc(C)ccc23)c2ccccc21` [Example 240, (6-methylnaphthalen-1-yl)(1-pentyl-1H-indol-3-yl)methanone] showed a fold induction at 35 µM of 1.69.
In the case of `CCCCCn1c(C)c(C(=O)c2ccc(CC)c3ccccc23)c2ccccc21` [Example 244, (4-ethyl-1-naphthalenyl)(2-methyl-1-pentyl-1H-indol-3-yl)-methanone], the fold induction at 35 µM is reported as 1.66.
For `CCCCCn1cc(C(=O)N[C@@H](Cc2ccccc2)C(N)=O)c2ccccc21` [Example 246, (S)-N-(1-amino-1-oxo-3-phenylpropan-2-yl)-1-pentyl-1H-indole-3-carboxamide], the fold induction at 35 µM was 1.65.
Work on `CC(C)(C)C(NC(=O)c1nn(Cc2ccc(F)cc2)c2ccccc12)C(N)=O` (centres unmarked) [Example 247, N-[1-(aminocarbonyl)-2,2-dimethylpropyl]-1-[(4-fluorophenyl)methyl]-1H-indazole-3-carboxamide] yielded a fold induction at 35 µM of 1.64.
With `O=C(Oc1cccc2ccccc12)c1cn(Cc2ccc(F)cc2)c2ccccc12` [Example 248, 1-[(4-fluorophenyl)methyl]-1H-indole-3-carboxylic acid, 1-naphthalenyl ester] the fold induction at 35 µM was 1.63.
Molecule `CCCCCn1cc(C(=O)Oc2cccc3ccccc23)c2ccccc21` [Example 249, naphthalen-1-yl 1-pentyl-1H-indole-3-carboxylate] has a fold induction at 35 µM of 1.63.
Work on `CCN(CC)CCN1C(=O)CN=C(c2ccccc2F)c2cc(Cl)ccc21` [Example 250, 7-chloro-1-[2-(diethylamino)ethyl]-5-(2-fluorophenyl)-1,3-dihydro-2H-1,4-benzodiazepin-2-one] yielded a fold induction at 35 µM of 1.63.
Molecule `CC(C)CCn1cc(C(=O)c2ccc3ccccc3c2)c2ccccc21` [Example 251, (1-isopentyl-1H-indol-3-yl)(naphthalen-2-yl)methanone] has a fold induction at 35 µM of 1.62.
For `COc1ccc(C(=O)c2cn(CC3CCCCC3)c3ccccc23)c2ccccc12` [Example 253, [1-(cyclohexylmethyl)-1H-indol-3-yl](4-methoxy-1-naphthalenyl)-methanone], the fold induction at 35 µM was 1.61.
`O=C(Oc1ccc2ccncc2c1)c1cn(CC2CCCCC2)c2ccccc12` [Example 254, isoquinolin-7-yl 1-(cyclohexylmethyl)-1H-indole-3-carboxylate] was tested, and the fold induction at 35 µM was 1.6.
Work on `CCCCCn1cc(C(=O)c2cccc3c(CC)cccc23)c2ccccc21` [Example 255, (5-ethyl-1-naphthalenyl)(1-pentyl-1H-indol-3-yl)-methanone] yielded a fold induction at 35 µM of 1.6.
In the case of `CCCCCn1cc(C(=O)Oc2ccc3ncccc3c2)c2ccccc21` [Example 256, quinolin-6-yl 1-pentyl-1H-indole-3-carboxylate], the fold induction at 35 µM is reported as 1.59.
With `O=C(Oc1cccc2ccccc12)c1cn(CCCCCF)c2ccccc12` [Example 257, naphthalen-1-yl 1-(5-fluoropentyl)-1H-indole-3-carboxylate] the fold induction at 35 µM was 1.59.
In the case of `CCCCCn1nc(C(=O)Oc2cccc3cccnc23)c2ccccc21` [Example 258, 1-pentyl-1H-indazole-3-carboxylic acid, 8-quinolinyl ester], the fold induction at 35 µM is reported as 1.59.
In the case of `CCCCCn1cc(C(=O)c2ccc3ccccc3c2)c2ccccc21` [Example 259, 2-naphthalenyl(1-pentyl-1H-indol-3-yl)-methanone], the fold induction at 35 µM is reported as 1.58.
`CC1(C)C(C(=O)c2cn(CC3CCOCC3)c3ccccc23)C1(C)C` [Example 260, [1-[(tetrahydro-2H-pyran-4-yl)methyl]-1H-indol-3-yl](2,2,3,3-tetramethylcyclopropyl)-methanone] showed a fold induction at 35 µM of 1.57.
Work on `O=C(Oc1cnc2ccccc2c1)c1cn(CC2CCCCC2)c2ccccc12` [Example 261, Quinolin-3-yl 1-(cyclohexylmethyl)-1H-indole-3-carboxylate] yielded a fold induction at 35 µM of 1.56.
`CCCCCn1cc(C(=O)c2cc(Cl)cc3ccccc23)c2ccccc21` [Example 263, (3-chloronaphthalen-1-yl)(1-pentyl-1H-indol-3-yl)methanone, hydrate] gave a fold induction at 35 µM of 1.56.
For `CCCCCn1cc(C(=O)c2cc(CC)cc3ccccc23)c2ccccc21` [Example 264, (3-ethyl-1-naphthalenyl)(1-pentyl-1H-indol-3-yl)-methanone], the fold induction at 35 µM was 1.56.
`CCCCCn1cc(C(=O)c2ccc(OC)c3ccccc23)c2ccccc21` [Example 265, (4-methoxy-1-naphthalenyl)(1-pentyl-1H-indol-3-yl)-methanone] showed a fold induction at 35 µM of 1.55.
Work on `NC(=O)[C@H](Cc1ccccc1)NC(=O)c1cn(CCCCCF)c2ccccc12` [Example 267, (S)-N-(1-amino-1-oxo-3-phenylpropan-2-yl)-1-(5-fluoropentyl)-1H-indole-3-carboxamide] yielded a fold induction at 35 µM of 1.55.
For `CCC(C)Cn1cc(C(=O)c2ccc3ccccc3c2)c2ccccc21` (centres unmarked) [Example 271, (1-(2-methylbutyl)-1H-indol-3-yl)(naphthalen-2-yl)-methanone], the fold induction at 35 µM was 1.54.
`CCCCCn1cc(C(=O)N2CCN(C)CC2)c2ccccc21` [Example 273, (4-methylpiperazin-1-yl)(1-pentyl-1H-indol-3-yl)methanone, monohydrochloride] was tested, and the fold induction at 35 µM was 1.53.
Work on `CCCCCn1cc(C(=O)Oc2ccc3ccncc3c2)c2ccccc21` [Example 274, isoquinolin-7-yl 1-pentyl-1H-indole-3-carboxylate] yielded a fold induction at 35 µM of 1.52.
With `CCCCCn1cc(C(=O)c2cccc3cc(CC)ccc23)c2ccccc21` [Example 275, (6-ethylnaphthalen-1-yl)(1-pentyl-1H-indol-3-yl)methanone] the fold induction at 35 µM was 1.52.
For `O=C(Oc1cccc2cccnc12)c1nn(Cc2ccc(F)cc2)c2ccccc12` [Example 276, quinolin-8-yl 1-(4-fluorobenzyl)-1H-indazole-3-carboxylate], the fold induction at 35 µM was 1.51.
Molecule `CN(C)C(=O)n1nnc(Cc2ccc(-c3ccccc3)cc2)n1` [Example 278, 5-([1,1′-biphenyl]-4-ylmethyl)-N,N-dimethyl-2H-tetrazole-2-carboxamide] has a fold induction at 35 µM of 1.49.

Same assay, conditions: MHC-I expression, COLO 205 cells, compounds at 35 μM, 48 hours, flow cytometry (W6/32)
In the case of `CCCCCCCC/C=C\CCCCCCCC(=O)N[C@H](C)CO` [Example 242], the “Induction Fold” value is reported as 1.67 Fold.
With `CCCCCn1nc(C(=O)OC23CC4CC(CC(C4)C2)C3)c2ccccc21` [Example 243, (3s,5s,7s)-adamantan-1-yl 1-pentyl-1H-indazole-3-carboxylate] the “Induction Fold” value was 1.67 Fold.
`CCCCCn1cc(C(=O)C23CC4CC(CC(C4)C2)C3)c2ccccc21` [Example 245, (1s,3s)-adamantan-1-yl(1-pentyl-1H-indol-3-yl)methanone] was tested, and the “Induction Fold” value was 1.66 Fold.
With `CCCCCN1C(=O)C(=NNC(=O)c2ccccc2)c2ccc(OC)cc21` [Example 266, 2Z-(1,2-dihydro-6-methoxy-2-oxo-1-pentyl-3H-indol-3-ylidene)hydrazide benzoic acid] the “Induction Fold” value was 1.55 Fold.
`COC(=O)[C@@H](NC(=O)c1cn(Cc2ccc(F)cc2)c2ccccc12)C(C)(C)C` [Example 269, N-[[1-[(4-fluorophenyl)methyl]-1H-indol-3-yl]carbonyl]-3-methyl-1-valine, methyl ester] was tested, and the “Induction Fold” value was 1.54 Fold.
In the case of `COC(=O)[C@@H](NC(=O)c1cn(Cc2ccc(F)cc2)c2ccccc12)C(C)C` [Example 270, N-[[1-[(4-fluorophenyl)methyl]-1H-indol-3-yl]carbonyl]-1-valine, methyl ester], the “Induction Fold” value is reported as 1.54 Fold.
For `COC(=O)[C@@H](NC(=O)c1nn(CCCCCF)c2ccccc12)C(C)C` [Example 279, N-[[1-(5-fluoropentyl)-1H-indazol-3-yl]carbonyl]-L-valine, methyl ester], the “Induction Fold” value was 1.49 Fold.
